Source: patent US3970642A, “Process for the conversion of niddamycin to leucomycin A1, leucomycin A3, carbomycin B and other antibiotics and related 3-O-esters” (Abbott Laboratories, priority 1974, dated 1976)
≈ marks a conversion by molar mass, not a printed value.

Experiments:
Assay type in all cases: cell-based
[1] = tested on: Diplococcus pneumoniae 6301; experiment: Standard two-fold tube dilution test, activity against Diplococcus pneumoniae 6301; conditions: Streptococcus pneumoniae, brain-heart infusion broth and 20% horse serum, 24 hours at 37°C, read-out: Minimum Inhibitory Concentration
Method: (§1) Three nid damycin and two dihydroniddamycin compounds were tested for their activity against Streptococcus pyogenes C203, and Diplococcus pneumoniae 6301 and Mycoplasma pneumoniae FH.
(§2) A standard two-fold tube dilution test was used. The medium inoculum were varied with each culture.
In the test for activity against Diplococcus pneumoniae 6301, 5 ml. portions of brain-heart infusion broth and 20% horse serum were used with 0.1 ml. of 1:100 dilution culture. The test was incubated for 24 hours at 37°C.

[2] = tested on: Streptococcus pyogenes C203; experiment: Standard two-fold tube dilution test, activity against Streptococcus pyogenes C203; conditions: brain-heart infusion broth, 24 hours at 37°C, read-out: Minimum Inhibitory Concentration
Method: as §1, §2
In the test for activity against Streptococcus pyogenes C203, 5 ml. portions of brain-heart infusion broth were used with 0.1 ml. of 1:100 dilution culture. The test was incubated for 24 hours at 37°C.

Mycoplasma pneumoniae FH = experiment: Standard two-fold tube dilution test, activity against Mycoplasma pneumoniae FH; conditions: 144 h, PPLO broth, six days at 37°C, read-out: Minimum Inhibitory Concentration
Method: as §1, §2
In the test for activity against Mycoplasma pneumoniae FH, 4.5 ml. portions of PPLO broth were used with 0.5 ml. of 1:100 dilution culture. The test was incubated for six days at 37°C.

Structure (SMILES) | MIC [1] | MIC [2] | MIC (Mycoplasma pneumoniae FH)
COC(CC1CC(C)C(=O)C=CC=CCC(C)OC(=O)CC(OC(C)=O)C(OC)C1OC1OC(C)C(OC2CC(C)(O)C(OC(=O)CC(C)C)C(C)O2)C(N(C)C)C1OC(C)=O)OC (stereo not drawn) [Compound 3B, 2',3-Di-(O)-acetylniddamycin dimethyl acetal] | > 100 µg/mL | > 100 µg/mL | > 100 µg/mL
COC(CC1CC(C)C(O)C=CC=CCC(C)OC(=O)CC(OC(C)=O)C(OC)C1OC1OC(C)C(OC2CC(C)(O)C(OC(=O)CC(C)C)C(C)O2)C(N(C)C)C1O)OC (stereo not drawn) [Compound 8B, 3-(O)-Acetyl-9-dihydroniddamycin B dimethyl acetal] |  | 25 µg/mL (≈ 28.6 µM) | 50 µg/mL (≈ 57.2 µM)

The remaining lines, values ahead:

MIC [1] | MIC [2] | MIC (Mycoplasma pneumoniae FH) | Structure (SMILES)
< 1.56 µg/mL | 0.78 µg/mL (≈ 0.94 µM) | 25 µg/mL (≈ 30.1 µM) | COC(CC1CC(C)C(=O)C=CC=CCC(C)OC(=O)CC(O)C(OC)C1OC1OC(C)C(OC2CC(C)(O)C(OC(=O)CC(C)C)C(C)O2)C(N(C)C)C1O)OC (stereo not drawn) [Compound 2, Niddamycin dimethyl acetal]
 | 6.2 µg/mL (≈ 7.45 µM) | 50 µg/mL (≈ 60.1 µM) | COC(CC1CC(C)C(O)C=CC=CCC(C)OC(=O)CC(O)C(OC)C1OC1OC(C)C(OC2CC(C)(O)C(OC(=O)CC(C)C)C(C)O2)C(N(C)C)C1O)OC (stereo not drawn) [Compound 4, 9-Dihydroniddamycin B dimethyl acetal]
 | 12.5 µg/mL (≈ 14.3 µM) | 25 µg/mL (≈ 28.7 µM) | COC(CC1CC(C)C(=O)C=CC=CCC(C)OC(=O)CC(OC(C)=O)C(OC)C1OC1OC(C)C(OC2CC(C)(O)C(OC(=O)CC(C)C)C(C)O2)C(N(C)C)C1O)OC (stereo not drawn) [Compound 6B, 3-(O)-Acetylniddamycin dimethyl acetal]
